Assay results from patent publication US20220162221A1, “Imaging Agents” (UCB Biopharma SRL, priority 2017, published 2022).
Blank lines part the entries; values can stand above or below the molecule they belong to.

Legend:
D1 receptor [1] = assay: In vivo PET imaging in cynomolgus monkey
Description: Experiment was performed in a cynomolgus monkey (Female, body weight 6.02 kg). The monkeys were sedated using intramuscular injection of ketamine and kept anesthetized using a mixture of sevoflurane, oxygen and medical air for the duration of the experiment. A baseline scan was performed following intravenous administration of 141 MBq of (−)-(Ia) at a specific activity of 795 GBq/μmol and PET images of the brain were acquired using the Siemens HRRT PET scanner (Siemens Preclinical Solutions, Knoxville, Tenn.).
(§1) Data were acquired for 123 min and binned into sinograms with the following frame timing: 9×20 sec; 3×1 min; 5×3 min; and 17×6 min. Regions of interest used in this study were caudate nucleus, putamen, cerebellum, frontal cortex, occipital cortex, globus pallidus, midbrain, ventral striatum, thalamus and temporal cortex. Registration parameters were obtained to apply the regions of interests to the PET scan and regional time-activity curves (TACs) were generated. Venous blood samples were withdrawn at 4, 15, 30, 60, 90, 120 minutes after (−)-(Ie) administration for metabolite analysis.

hD1R in SK-N-MC cells = hD1R in SK-N-MC cells (Homo sapiens, UniProt P21728); assay: cAMP HTRF D1 functional assay; settings: for Erel: relative efficacy compared to dopamine maximum response, SK-N-MC cells
Sequence of hD1R in SK-N-MC cells (P21728 whole entry): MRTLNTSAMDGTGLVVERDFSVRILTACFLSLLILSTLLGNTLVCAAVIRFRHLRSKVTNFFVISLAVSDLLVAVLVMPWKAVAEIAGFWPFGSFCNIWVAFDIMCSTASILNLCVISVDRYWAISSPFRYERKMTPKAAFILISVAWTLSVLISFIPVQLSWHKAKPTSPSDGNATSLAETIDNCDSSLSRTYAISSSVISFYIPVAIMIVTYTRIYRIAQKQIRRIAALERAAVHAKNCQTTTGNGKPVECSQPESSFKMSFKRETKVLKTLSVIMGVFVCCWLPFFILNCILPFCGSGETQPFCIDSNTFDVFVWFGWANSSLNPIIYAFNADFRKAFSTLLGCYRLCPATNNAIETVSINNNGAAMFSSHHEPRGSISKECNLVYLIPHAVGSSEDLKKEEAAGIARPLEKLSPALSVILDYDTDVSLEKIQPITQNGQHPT
Description: The reaction was terminated by consecutive additions of 10 μL d2 detection reagent and the cryptate reagent both diluted in lysis buffer. After a period of 60 min at room temperature, changes in HTRF emission ratio were determined and transformed in [cAMP]i using a standard curve.

human D1R = human D1R (Homo sapiens, UniProt P21728); assay: Radioligand binding on HEK hD1R membranes with or without D1 PAM; set-up: expressed in transfected cells; host or cells: HEK cells, transient transfection, pcDNA3.1; membrane preparation
Sequence of human D1R (P21728 whole entry): as above
Description: Transient transfection of human dopamine D1R was performed with pcDNA3.1 vector in human embryonic kidney cells (HEK hD1R).
The membrane of HEK hD1R cells were used to measure radioligand binding. 48 hours post transfection, cells were pelleted by centrifugation at 1,500 g and 4° C. for 10 min. Pellet was washed once with ice-cold phosphate buffered saline solution (PBS) and centrifuged as described just above. Pellet was homogenized in a buffer containing 15 mM Tris-HCl, 0.3 mM ethylene diamine tetraacetic acid, 1 mM ethylene glycol tetraacetic acid, 2 mM MgCl2 (pH 7.5) and complemented with protease inhibitor cocktail. The homogenate was freeze-thawed twice and equilibrated at 25° C. followed by a 10 min DNAse (10 U/ml) treatment. Subsequently, the solution was centrifuged at 40,000 g and 4° C. for 30 min. Finally, the pellet was resuspended in 20 mM Tris-HCl buffer (pH 7.4) containing 250 mM sucrose and store at −80° C. until D1 radioligand binding assay. […] At the end of the incubation period, the protein-bound radioligand was recovered by filtration through pre-soaked GF/B glass fiber filters. Filters were washed with at least 4 times the assay volume of ice-cold 50 mM Tris-HCl buffer (pH 7.4). […] The filters were dried and the radioactivity determined by liquid scintillation.
Competition/potentiation binding experiments were carried out at constant (−)-(Ic) concentration (1-4 nM) and 10 increasing concentrations of (−)-(Ic) or compound b (10^−10 M to 10^−5 M).

D1 receptor [2] = target: T1, D1 receptor (Macaca mulatta, UniProt O77680); assay: Autoradiography on NHP brain slices; format: binding
T1 construct: 12 μm brain slices were prepared from fresh frozen NHP brain hemisphere; tissue Motac (Bordeaux, France); host or cells: Macaca mulatta brain sections (caudate putamen)
T1 sequence (O77680 whole entry): as the sequence (P21728 whole entry) above, with N311I counted along it
Description: Brain sections from non-human primate (NHP) Macaca mulatta were provided by Motac (Bordeaux, France) where all animal experiments were performed in accordance with european animal use ethical guidance and legislation.
12 μm brain slices were prepared from fresh frozen NHP brain hemisphere and were placed on glass microscopy slide. Autoradiography experiment was performed at room temperature in HBSS HEPES buffer (pH 7.4). NHP brain sections first equilibrated for 30 min before to be incubated for one hour with [^3H]compound in 1% DMSO. Slides were then washed in iced-cold 50 mM Tris-HCl buffer (pH 7.4) for 5 min followed by two washes in iced-cold distilled water. Sections were dried under atmospheric pressure at room temperature. Radioactivity on slice was either measured indirectly after exposure of slides to a phosphor screen, either using a direct counter. In every autoradiography experiments, a [^3H]standard was included for quantification and the NSB was defined as the residual binding of [^3H]compound observed in the presence of 10 μM non-labeled compound.

D1 receptor [3] = assay: In vivo potentiation PET imaging with D1 PAM; set-up: species or system cynomolgus monkeys (Macaca fascicularis); settings: FIG. 5, Compound-B 20 mg/kg
Description: Two cynomolgus monkeys (Macaca fascicularis) housed at the MPI Research (Mattawan, Mich.), were used as research subjects for the in vivo potentiation PET studies.
Each animal was anesthetized with propofol iv bolus (2.5-5.0 mk/kg) and maintained with propofol iv Continuous Rate Infusion (CRI, 0.1-0.6 mg/kg/min). for at least 30 minutes prior to initiation of Compound-B i.v. dose administration. Several dose levels were administered. […]
Following Compound (−)-Ib administration, arterial blood samples were drawn from the central iliac artery prior to the dosing with Compound (−)-Ib and at 13 time points up to 120 min post-injection of Compound (−)-Ib. All blood samples were collected in anticoagulant tubes and stored on wet ice until quantification for radioactivity by gamma counter, measure of Compound (−)-Ib parent fraction in plasma over time by HPLC and Compound (−)-Ib ex vivo stability in blood.
Reconstructed dynamic brain PET images were transferred and analyzed using the image processing PMOD software package (PMOD Technologies, Zurich, Switzerland). […] Subsequent PET images acquired during drug studies were aligned first to the baseline images and then transformed into the common MR template space using the already calculated transformation from the baseline images. […]

[4] = Metabolite profile by radio-HPLC of venous blood samples; format: in vivo, cynomolgus monkey; settings: for metabolites detected (words): venous blood, radio-HPLC
Description: as §1
The profile of metabolites of (−)-Ia was determined by radio-HPLC analysis of the venous blood samples collected post-administration at several timepoints. The parent fraction in plasma is 85% at 15 minutes, 60% at 30 minutes and still about 45% at 60 minutes.

[5] = saturation binding, 10 μM D1 PAM, HEK hD1R membranes (FIG. 3B)
[6] = Logan reference tissue model, cerebellum as reference

Molecule: Cc1c(-c2ccc(Oc3nccc4occc34)cc2CF)n(C)c(=O)[nH]c1=O (single isomer, unassigned) [(−)-(Ia), [^11C]-6-(2-(fluoromethyl)-4-(furo[3,2-c]pyridin-4-yloxy)phenyl)-1,5-dimethylpyrimidine-2,4(1H,3H)-dione]
brain uptake pattern (D1 receptor [1]; PET images, summed SUV 33-63 minutes): uptake pattern consistent with the reported distribution of D1-like receptors in the brain

EC50 (hD1R in SK-N-MC cells): 5.01 nM
agonist-like effect on D1 receptor (hD1R in SK-N-MC cells; cAMP HTRF): D1 partial agonist-like effect
Erel (hD1R in SK-N-MC cells): 53 ± 13%
Erel (hD1R in SK-N-MC cells; listed as (−)-I): 53%
Molecule: Cc1c(-c2ccc(Oc3nccc4occc34)cc2CF)n(C)c(=O)[nH]c1=O (single isomer, unassigned) [Compound (−)-(I), 6-(2-(fluoromethyl)-4-(furo[3,2-c]pyridin-4-yloxy)phenyl)-1,5-dimethylpyrimidine-2,4(1H,3H)-dione]

potentiation of radioligand binding by D1 PAM (human D1R; low nanomolar radioligand concentration (1-4 nM), FIG. 3C): > 50%
decrease of KD by D1 PAM (human D1R; [5]): 20%
increase of Bmax by D1 PAM (human D1R; [5]): 45%
specific binding in the presence of a D1 PAM (D1 receptor [2]; NHP brain slices, FIG. 4): significantly increased
Total Binding in caudate putamen (words) (D1 receptor [2]; NHP brain slices, listed as (Ic)): significantly binds in caudate putamen
Total Binding in caudate putamen (words) (D1 receptor [2]; NHP brain slices, listed as (−)-Ic): significant binding
non specific binding (D1 receptor [2]; in the presence of 10 μM compound (I), caudate putamen): 20%
Molecule: [^3H]-6-(2-(fluoromethyl)-4-(furo[3,2-c]pyridin-4-yloxy)phenyl)-1,5-dimethylpyrimidine-2,4(1H,3H)-dione [(−)-(Ic)]
effect of D1 PAM on radioligand binding (human D1R; HEK hD1R membranes (FIG. 3)): significantly improved binding properties

Molecule: Cc1c(-c2ccc(Oc3nccc4occc34)cc2C[18F])n(C)c(=O)[nH]c1=O [(−)-(Ib), [^18]-6-(2-(fluoromethyl)-4-(furo[3,2-c]pyridin-4-yloxy)phenyl)-1,5-dimethylpyrimidine-2,4(1H,3H)-dione]
effect of D1 PAM on tracer binding/uptake in vivo (words) (D1 receptor [3]): significantly improved binding properties
effect of D1 PAM on tracer binding/uptake in vivo (words) (D1 receptor [3]; listed as (−)-Ib): increased uptake

parent fraction in plasma ([4]; at 15 minutes): 85%
parent fraction in plasma ([4]; at 30 minutes): 60%
parent fraction in plasma ([4]; at 60 minutes): about 45%
metabolites detected (words) ([4]; listed as (Ia)): no associated lipophilic metabolite
peak uptake SUV (D1 receptor [1]; 5-10 minutes post-administration, across brain regions, iv): 3.5-4
SUV in caudate and putamen (D1 receptor [1]; at 60 minutes): about 2
SUV in cerebellum (D1 receptor [1]; at 60 minutes): about 1
Molecule: Cc1c(-c2ccc(Oc3nccc4occc34)cc2CF)n([11CH3])c(=O)[nH]c1=O (single isomer, unassigned) [(−)-(Ia), [^11C]-6-(2-(fluoromethyl)-4-(furo[3,2-c]pyridin-4-yloxy)phenyl)-1,5-dimethylpyrimidine-2,4(1H,3H)-dione]
metabolites detected (words) ([4]; listed as (−)-Ia): only hydrophilic metabolites unlikely to cross the blood-brain barrier have been detected
binding potential (BPND), caudate (D1 receptor [1]; [6]): 0.94
binding potential (BPND), putamen (D1 receptor [1]; [6]): 0.87
